Key:
rat femur fracture model = assay: Rat femur fracture model, fracture healing; format: in vivo
From the text: Certain embodiments of the methods disclosed herein also include the use of the microprojection arrays as described herein in their various embodiments to accelerate fracture healing in a patient who has suffered one or more fractures and for which the fractures are not completely healed. Healing of bone fractures (eg long bone fractures) involves endochondral and intramembranous bone formation, which together form a callus that achieves union, stabilization, and gradual recovery of bone strength. […] Sixteen rats from each group were necropsied after 4 and 6 weeks of healing, with 12 fractured femurs per group used for micro-CT and biomechanical testing and the other 4 femurs used for micro-CT and histology.

[1] = Subcutaneous 80 μg abaloparatide versus placebo: fractures, BMD, TBS; format: in vivo; conditions: subcutaneous administration
Experimental: In certain embodiments, the abaloparatide-SC treatment comprises subcutaneous administration of an aqueous formulation comprising abaloparatide (about 2 mg/mL) in an acetate buffer, with a pH of about 4.5 to about 5.6, or about 5.1. Optionally, the aqueous formulation further comprises phenol (about 5 mg/mL). In certain examples of these embodiments, the acetate buffer comprises tri-hydrate sodium acetate (about 5 mg/mL) with pH (e.g., about 4.5 to about 5.6, or about 5.1) adjusted with acetic acid. Unless specifically stated otherwise, comparative abaloparatide sc dose use an 80 μg dose delivered subcutaneously to the periumbilicular region of the abdomen of the patient.

[2] = tested on: ovariectomy-induced osteopenic rats and monkeys; conditions: cited from earlier work

Substance: [Glu^22,25, Leu^23,28,31, Aib^29, Lys^26,30]hPTHrP(1-34)NH2 [abaloparatide]
- callus stiffness, higher vs VEH (rat femur fracture model; 5 ug/kg/d, week 4, three-point bending): 60%
- callus stiffness, higher vs VEH (rat femur fracture model; 5 ug/kg/d, week 6): 112%
- callus peak load, higher vs VEH (rat femur fracture model; 25 ug/kg/d, week 4): 77%
- callus stiffness, higher vs VEH (rat femur fracture model; 25 ug/kg/d, week 4, three-point bending): 96%
- callus area (histomorphometry) (rat femur fracture model; 5 and 25 ug/kg/d, week 4, vs VEH): significantly greater callus area
- callus bone volume, bone volume fraction, and BMC (micro-CT) (rat femur fracture model; 5 and 25 ug/kg/d, weeks 4 and 6, vs VEH): significantly greater
- cortical bridging across the fracture gap (semi-quantitative histologic scoring) (rat femur fracture model; 5 or 25 ug/kg/d sc daily, week 4, vs VEH): significantly greater bridging
- callus peak load vs VEH (rat femur fracture model; both abaloparatide groups, week 6): numerically higher
- BMD and/or TBS at the lumbar spine, total hip, and femoral neck [1]: improve
- bone loss [2]: complete reversal of bone loss
